Results published in the NIST ThermoML archive (doi:10.1021/je5004912).

Test: excess molar enthalpy (molar enthalpy of mixing); xn = mol fraction of the nth substance listed
Details: 101 kPa, Liquid, Flow calorimetry

CC(C)CC(C)(C)C [2,2,4-trimethylpentane] + CCCO
excess molar enthalpy [kcal/mol]
Details | 298.15 K | 313.15 K
x1 = 0.05 | 0.0208 | 0.0282
x1 = 0.1 | – | 0.0543
x1 = 0.1001 | 0.0399 | –
x1 = 0.1504 | – | 0.0784
x1 = 0.1505 | 0.0576 | –
x1 = 0.2002 | – | 0.1
x1 = 0.2003 | 0.0736 | –
x1 = 0.25 | – | 0.12
x1 = 0.2501 | 0.0882 | –
x1 = 0.2997 | – | 0.139
x1 = 0.2999 | 0.102 | –
x1 = 0.3498 | – | 0.156
x1 = 0.3499 | 0.114 | –
x1 = 0.4004 | – | 0.172
x1 = 0.4006 | 0.126 | –
x1 = 0.4502 | – | 0.185
x1 = 0.4503 | 0.136 | –
x1 = 0.4995 | – | 0.195
x1 = 0.4997 | 0.144 | –
x1 = 0.5503 | – | 0.203
x1 = 0.5504 | 0.151 | –
x1 = 0.5997 | – | 0.209
x1 = 0.5998 | 0.155 | –
x1 = 0.6498 | – | 0.211
x1 = 0.65 | 0.157 | –
x1 = 0.7007 | – | 0.211
x1 = 0.7008 | 0.157 | –
x1 = 0.7501 | – | 0.206
x1 = 0.7502 | 0.153 | –
x1 = 0.7993 | – | 0.197
x1 = 0.7994 | 0.146 | –
x1 = 0.8499 | 0.135 | 0.184
x1 = 0.8998 | 0.12 | 0.163
x1 = 0.9506 | 0.0937 | 0.124
